9 compounds from patent publication US9173972B2, “Methods and compositions for promoting wound healing” (priority 2005, dated 2015) can be followed below.

The test system of test [1] is Staphylococcus aureus isolated from burn patients. Description: Antibiotic resistance profile, disc diffusion method. Note: key: R = resistant; I = intermediate; S = sensitive. The class given is cell-based. Conditions: S. aureus.
Test [2] concerns Pseudomonas aeruginosa isolated from burn patients. The description is as above. Format: cell-based. Conditions: P. aeruginosa. Note: key: R = resistant; I = intermediate; S = sensitive.
Test [3] concerns Enterococcus faecalis isolated from burn patients. The test is described as above. The class given is cell-based. The settings on record: E. faecalis. Note: key: R = resistant; I = intermediate; S = sensitive.
For another test, the system named is Candida albicans. Description: MIC and MBC, isolates from dogs with otitis externa and pyoderma. The class given is cell-based. The settings on record: C. albicans; multiple of the 1x stock solution of the tested composition. The procedure:
(§1) The formulation was tested against Pseudomonas aeruginosa, Proteus mirabilis, Escherichia coli, Staphylococcus intermedius, Malessezia pachydermatis, and Candida albicans.

The test system of test [4] is Escherichia coli isolated from a dog with otitis externa. Described as above. Format: cell-based. The settings on record: E. coli. Here is the method: as §1
For the next test, the system named is Malassezia pachydermatis. Described as above. Conditions: M. pachydermatis; multiple of the 1x stock solution of the tested composition. The class given is cell-based. The procedure: as §1
The subject of the next test is Proteus mirabilis. Described as above. Format: cell-based. Conditions: P. mirabilis; multiple of the 1x stock solution of the tested composition. The procedure: as §1
The test system of test [5] is Pseudomonas aeruginosa. The test is described as above. Conditions: P. aeruginosa (dog isolate); multiple of the 1x stock solution of the tested composition. Format: cell-based. The procedure:
as §1

In test [6] the test system is Staphylococcus intermedius. Described as above. The class given is cell-based. The settings on record: S. intermedius; multiple of the 1x stock solution of the tested composition. The procedure:
as §1

Test [7] concerns Pseudomonas aeruginosa isolated from a human burn patient. Description: MIC and MBC of Tris, EDTA, cocamidopropyl betaine and silver combinations. The class given is cell-based. The settings on record: P. aeruginosa (human burn isolate); multiple of the 1x stock solution of the tested composition.
The subject of test [8] is Staphylococcus aureus isolated from a human burn patient. The test is described as above. The class given is cell-based. The settings on record: S. aureus (human burn isolate); multiple of the 1x stock solution of the tested composition.
The subject of test [9] is surface ulcers of Koi (multiple antibiotic-resistant pathogenic species). The experiment in a line: Immersion bath treatment of Koi suffering from surface ulcers. The class given is in vivo, Koi (Cyprinus carpio). Conditions: antibiotic injected directly into the fish, before the bath treatment. The procedure: An immersion treatment of the infected animals of 5 to 10 minutes on alternate days over a six day period promoted healing of most ulcers.
All of the treated fish had previously been given injections of Azactam, Baytril, and Amikacin. […] Among the species of bacteria found in the ulcers of the fish were representatives of the genera Aeromonas, Proteus, Klebsiella, Staphylococcus, Streptococcus, Enterobacter and Flavobacterium.
All fish were housed in a communal “hospital tank” before treatment and moved to an isolation tank after each treatment. The temperature of the bath was adjusted to that of the hospital tank temperature, 24 C, and adequate aeration was supplied to the treatment tank. Eight of the fish had external ulcers of various dimensions. Two of the fish were dropsied.

The next test deals with Enterococcus faecalis. The experiment in a line: MIC/MBC microtiter dilution and checkerboard of EDTA-Tris and neomycin. The class given is cell-based. The procedure:
(§2) This example describes a method for determining the FIC values set forth in Example 4. […] Agents and Chem. pp. 210-217 (1967); and Sparks et al., Vet. Res. Comm. 18:241-249 (1994). Each of the foregoing publications are incorporated herein by reference.
(§3) Then 0.05 ml of an 18-hour old culture of a test organism, containing […] colony-forming units (CFU) ml, were added to each well. Controls for the culture and media were included in each plate. Plates were covered and incubated at 37° C. for 18-24 hours.
(§4) To generate isobolograms, FICs of the two test solutions were plotted individually on the x-axis and y-axis to determine the effect of combining the two test solutions on bacterial growth. A line that curves away from the zero point and the coordinates indicated antagonism. […] Goodman and Gilman, pp. 1085-1086 (Macmillan Publishing Co., New York, 1985); Sabath, L. D., Antimicrob. Agents and Chem. pp. 210-217 (1967) and incorporated herein by reference in their entireties.
(§5) 307 (pub: Am. Soc. Microbiol. Williams and Wilkins, Baltimore 1970), incorporated herein by reference in its entirety.

The test system of test [10] is Pseudomonas aeruginosa. Described as above. Format: cell-based. The procedure:
as §2, §3, §4, §5

The subject of the next test is Staphylococcus aureus. The description is as above. The class given is cell-based. Here is the method: as §2, §3, §4, §5
The subject of another test is Aeromonas caviae. The experiment in a line: MIC and FIC of EDTA and neomycin, Aeromonas isolated from ulcerated fish. The settings on record: A. caviae; EDTA in 50 mM Tris. The class given is cell-based. The procedure:
(§6) This example describes a method for determining the FIC values set forth in Example 4. […] Agents and Chem. pp. 210-217 (1967); and Sparks et al., Vet. Res. Comm. 18:241-249 (1994). Each of the foregoing publications are incorporated herein by reference. […] Then 0.05 ml of an 18-hour old culture of a test organism, containing […] colony-forming units (CFU) ml, were added to each well. Controls for the culture and media were included in each plate. Plates were covered and incubated at 37° C. for 18-24 hours. A numerical score or Fractional Inhibitory Concentration (FIC) index was determined. The FIC index is equal to the sum of the values of FIC for the individual drugs: An FIC index greater than 1.0 indicated an antagonistic interaction, an FIC index of 1.0 indicated addition, and an FIC index of less than or equal to 0.5 indicated synergism between the two test agents.

Another test relates to Aeromonas sobria. The description is as above. The class given is cell-based. Conditions: A. sobria; EDTA in 50 mM Tris. Here is the method: as §6
The mark [11] stands for this setting: multiple of the 1x stock solution of the tested composition.
[12] abbreviates: EDTA co-administered with neomycin in 50 mM Tris.
The mark [13] stands for this setting: neomycin co-administered with EDTA in 50 mM Tris.

Take `CN[C@H](CC(C)C)C(=O)N[C@H]1C(=O)N[C@@H](CC(N)=O)C(=O)N[C@H]2C(=O)N[C@H]3C(=O)N[C@H](C(=O)N[C@H](C(=O)O)c4cc(O)cc(O)c4-c4cc3ccc4O)[C@H](O)c3ccc(c(Cl)c3)Oc3cc2cc(c3O[C@@H]2O[C@H](CO)[C@@H](O)[C@H](O)[C@H]2O[C@H]2C[C@](C)(N)[C@H](O)[C@H](C)O2)Oc2ccc(cc2Cl)[C@H]1O` [Va, vancomycin]: the Antibiotic resistance profile entry was “S” in test [1], “R” in [2] and “R” in test [3].

As to cocamidopropyl betaine, the MBC with Candida albicans is 0.003x; in test [4], 50% of stock solution; in [4] (setting [11]), 0.5x; with Malassezia pachydermatis, 0.003x; with Proteus mirabilis it was 0.5x; against Pseudomonas aeruginosa [5] it was 0.5x. The values for the MBC in test [6], in test [7] and in test [8] were 0.001x, 0.5x and 0.001x, respectively. Moreover, the MIC is listed as 0.001x with Candida albicans; 25% of stock solution in test [4]; 0.25x in test [4] (setting [11]); 0.001x against Malassezia pachydermatis; 0.25x with Proteus mirabilis; 0.25x in the test on Pseudomonas aeruginosa [5]. The figures for the MIC in test [6], in [7] and in test [8] were 0.001x, 0.25x and 0.001x, respectively.

For `CCN1CCN(c2cc3c(cc2F)c(=O)c(C(=O)O)cn3C2CC2)CC1` [Baytril], in test [9], the “healing of visible ulcers” value is recorded as “failed to heal visible ulcers”.

In the case of `O=C(O)CN(CCN(CC(=O)O)CC(=O)O)CC(=O)O` [EDTA, ethylenediaminetetraacetate], the “MBC, Individually Administered” value in the test with Enterococcus faecalis (EDTA alone in 50 mM Tris) and in the test on Pseudomonas aeruginosa [10] (EDTA alone in 50 mM Tris) was 250 mM each time. The “MBC, Co-administered” value in the test with Enterococcus faecalis (setting [12]) is recorded as 62.5 mM; in the test on Pseudomonas aeruginosa [10] (setting [12]) it was 20.0 mM; in the test on Staphylococcus aureus (setting [12]) it was 3.9 mM. Also, the results for the “MIC, EDTA alone” value in the test with Aeromonas caviae and in the test on Aeromonas sobria were less than 0.49 and 15.6, respectively.

oxacillin/methicillin: the Antibiotic resistance profile result in test [1], in test [2] and in test [3] was “R” in each case.

In the case of `C[C@H]1[C@H](NC(=O)/C(=N\OC(C)(C)C(=O)O)c2csc(N)n2)C(=O)N1S(=O)(=O)O` [Azactam], in [9], the “healing of visible ulcers” value is “failed to heal visible ulcers”.

Regarding neomycin, the Antibiotic resistance profile result in [1], in [2] and in [3] was “R” throughout. The “MBC, Individually Administered” value in the test on Enterococcus faecalis (neomycin alone in 50 mM Tris) stood at 25000 µg/mL; with Pseudomonas aeruginosa [10] (neomycin alone in 50 mM Tris) it was 5000 µg/mL. Moreover, the “MBC, Co-administered” value with Enterococcus faecalis (setting [13]) came to 6250 µg/mL; in the test with Pseudomonas aeruginosa [10] (setting [13]) it was 40 µg/mL; in the test on Staphylococcus aureus (setting [13]), 1560 µg/mL.

For the compound `NCC[C@H](O)C(=O)N[C@@H]1C[C@H](N)[C@@H](O[C@H]2O[C@H](CN)[C@@H](O)[C@H](O)[C@H]2O)[C@H](O)[C@H]1O[C@H]1O[C@H](CO)[C@@H](O)[C@H](N)[C@H]1O` [Amikacin], the “healing of visible ulcers” value in test [9] is given as “failed to heal visible ulcers”.

Regarding gentamicin [GM], the Antibiotic resistance profile entry in test [1] is “S”; in [2] it was “I”; in test [3] it was “R”.
